From patent US4156731A, “Heterocyclic oxime compounds and carbamoyloxime derivatives” (priority 1976, dated 1979)

Legend:
[1] = Peroral toxicity to mammals (rat); details: in vivo, po, mortality rate of 50 percent, read-out: A. O. Rat LD50
Protocol: Certain of these compositions were also evaluated to determine their peroral toxicity to mammals. The animal selected for this experiment was the rat.

[2] = test system: southern armyworm (Prodenia Eridania, (Cram.)); assay: Southern Armyworm Leaf Spray Test; type: in vivo; design: key: A: Excellent control; B: Partial control; C: No control; details: larvae, 500 ppm leaf spray, three days
Protocol: (§1) Selected species of the new compounds were evaluated to determine their pesticidal activity against mites and certain insects, including anaphid, a caterpillar, a beetle and a fly.
(§2) Suspensions of the test compounds were prepared by dissolving one gram of compound in 50 milliliters of acetone in which had been dissolved 0.1 gram (10 percent of the weight of compound) of an alkylphenoxy polyethoxyethanol surfactant, as an emulsifying or dispersing agent. The resulting solution was mixed into 150 milliliters of water to give roughly 200 milliliters of a suspension containing the compound in finely divided form. The thus-prepared stock suspension contained 0.5 percent by weight of test compound. The test concentrations in parts per million by weight employed in the tests described hereinbelow were obtained by appropriate dilutions of the stock suspension with water. The test procedures were as follows:
Southern Armyworm Leaf Spray Test
Larvae of the southern armyworm (Prodenia Eridania, (Cram.), reared on Tendergreen bean plants at a temperature of 80°±5° F. and a relative humidity of 50±5 per cent, constituted the test insects.
The test compounds were formulated by diluting the stock suspension with water to give a suspension containing 500 parts of test compound per million parts of final formulation. Potted Tendergreen bean plants of standard height and age were placed on a revolving turntable and sprayed with […] of test compound formulation by use of a DeVilbiss spray gun set at 10 psig. air pressure.
This application, which lasted 25 seconds, was sufficient to wet plants to run-off. As a control, 100-110 milliliters of a water-acetone-emulsifier solution containing no test compound were also sprayed on infested plants. When dry, the paired leaves were separated and each one was placed in a 9 centimeter Petric dish lined with moistened filter paper. Five randomly selected larvae were introduced into each dish and the dishes were closed. The closed dishes were labeled and held at 80°-85° F. for three days. Although the larvae could easily consume the whole leaf within twenty-four hours, no more food was added. Larvae which were unable to move the length of the body, even upon stimulation by prodding, were considered dead. Per cent mortality was recorded for various concentration levels.
(§3) In these tests the pesticidal activity of the compounds against aphid, mite, Southern Armyworm, Mexican Bean Beetle, and house fly was rated as follows: […]

[3] = test system: bean aphid (Aphis fabae Scop.); assay: Bean Aphid Foliage Spray Test; type: in vivo; design: key: A: Excellent control; B: Partial control; C: No control; details: 500 ppm foliage spray, 24 hour holding period
Protocol: as §1, §2
Bean Aphid Foliage Spray Test
Adults and nymphal stages of the bean aphid (Aphis fabae Scop.) reared on potted dwarf nasturtium plants at 65°-70° F. and 50-70 per cent relative humidity, constituted the test insects. For testing purposes, the number of aphids per pot was standardized to 100-150 by trimming plants containing excess aphids.
The test compounds were formulated by diluting the stock suspension with water to give a suspension containing 500 parts of test compound per million parts of final formulation.
The potted plants (one pot per compound tested) infested with 100-150 aphids, were placed on a revolving turntable and sprayed with 100-110 milliliters of test compound formulation by use of a DeVilbiss spray gun set at 40 psig. air pressure. This application, which lasted 25 seconds, was sufficient to wet the plants to run-off. As a control, 100-110 milliliters of a water-acetone-emulsifier solution containing no test compound were also sprayed on infested plants. After spraying, the pots were placed on their sides on a sheet of white standard mimeograph paper which had been previously ruled to facilitate counting. Temperature and humidity in the test room during the 24 hour holding period were 65°-70° F. and 50-70 per cent, respectively. Aphids which fell into the paper and were unable to remain standing after being uprighted were considered dead. Aphids remaining on the plants wre observed closely for movement and those which were unable to move the length of the body upon stimulator by prodding were considered dead. Per cent mortality was recorded for various concentration levels.
as §3

[4] = test system: two spotted mite (Tetranychus urticae Koch); assay: Mite Foliage Spray Test; type: in vivo; design: key: A: Excellent control; B: Partial control; C: No control; details: 500 ppm foliage spray, six days
Protocol: as §1, §2
Adults and nymphal stages of the two spotted mite (Tetranychus urticae Koch), reared on Tendergreen bean plants at 80±5 per cent relative humidity, were the test organisms. Infested leaves from a stock culture were placed on the primary leaves of two bean plants six to eight inches in height, growing in a two-and-a-half inch clay pot. 150-200 mites, a sufficient number for testing, transferred from the excised leaves to the fresh plants in a period of twenty four hours. Following the twenty four hour transfer period, the excised leaves were removed from the infested plants. The test compounds were formulated by diluting the stock suspension with water to give a suspension with water to give a suspension containing 500 parts of test compound per million parts of final formulation. The potted plants (one pot per compound) were placed on a revolving turntable and sprayed with 100-110 milliliters of test compound formulation by use of a DeVilbiss spray gun set at 40 psig. air pressure. This application, which lasted for 25 seconds, was sufficient to wet the plants to run-off. As a control, 100-110 milliliters of a water solution containing acetone and emulsifier in the same concentrations as the test compound formulation, but containing no test compound, were also sprayed on infested plants. The sprayed plants were held at 80±5 per cent relative humidity for six days, after which a mortality count of motile forms were made. Microscopic examination for motile forms was made on the leaves of the test plants. Any individual which was capable of locomotion upon prodding, was considered living.
as §3

[5] = test system: Mexican bean beetle (Epilachna varivestis, Muls.); assay: Mexican Bean Beetle Leaf Spray Test; type: in vivo; design: key: A: Excellent control; B: Partial control; C: No control; details: fourth instar larvae, 500 ppm leaf spray, three days
Protocol: as §1, §2
Mexican Bean Beetle Leaf Spray Test
Fourth instar larvae of the Mexican bean beetle (Epilachna varivestis, Muls.), reared on Tendergreen bean plants at a temperature of 80°±5° F. and 50±5 per cent relative humidity, were the test insects.
The test compounds were formulated by diluting the stock suspension with water to give a suspension containing 500 parts of test compound per million parts of final formulation. Potted Tendergreen bean plants of standard height and age were placed on a revolving turntable and sprayed with 100-110 milliliters of test compound formulation by use of DeVilbiss spray gun set at 10 psig air pressure. This application, which lasted 25 seconds, was sufficient to wet plants to run-off. As a control, 100-110 milliliters of a water-acetone-emulsifier solution containing no test compound were also sprayed on infested plants. When dry, the paired leaves were separated and each was placed in a 9 centimeter Petri dish lined with moistened filter paper. Five randomly selected larvae were introduced into each dish, and the dishes were closed. The closed dishes were labeled and held at a temperature of […]. for three days. Although the larvae could easily consume the leaf within 24 to 48 hours, no more food was added. Larvae which were unable to move the length of the body, even upon stimulation, were considered dead.
as §3

[6] = test system: house flies (Musca domestica, L.); assay: Fly Bait Test; type: in vivo; design: key: A: Excellent control; B: Partial control; C: No control; details: adults, 500 ppm in sugar bait, twenty four hours
Protocol: as §1, §2
Four to six day old adult house flies (Musca domestica, L.) reared according to the specifications of the Chemical Specialities Manufacturing Association (Blue Book, McNair-Dorland Co., NY., 1954; pages 234-244, 261) under controlled conditions of 80°±5° F. and 50±5 per cent relative humidity, were the test insects. The flies were immobilized by anesthetizing with carbon dioxide and twenty five immobilized individuals, males and females, were transferred to a cage consisting of a standard food stainer about five inches in diameter which was inverted over a wrapping-paper-covered surface. The test compounds were formulated by diluting the stock suspension with a 10 per cent (by weight) sugar solution to give a suspension containing 500 parts of test compound per million parts of final formulation, by weight. Ten milliliters of the test formulation were added to a souffle cup containing a one inch square of an absorbent cotton pad. This bait cup was introduced and centered on the blotting paper under the food strainer prior to admitting the anesthetized flies. The caged flies were allowed to feed on the bait for twenty four hours, at a temperature of 80°±5° F. and the relative humidity of 50±5 per cent.
as §3

Compound	LD50 [1] [mg/kg]	Southern Armyworm pesticidal activity rating [2]	Bean Aphid pesticidal activity rating [3]	Mite pesticidal activity rating [4]	Mexican Bean Beetle pesticidal activity rating [5]	House-Fly pesticidal activity rating [6]
CNC(=O)ON=C1SC(=NN(C)C)SC1(C)C [LV]	1.8	A	A	A	A	A
CN(SC(Cl)(Cl)Cl)C(=O)ON=C1SC(=C(C#N)C#N)SC1(C)C [LXIII]	538	C	A	C	A	C
CN(SN1CCOCC1)C(=O)ON=C1SC(=C(C#N)C#N)SC1(C)C [LXXIV]		B	A	C	C	C
CNC(=O)ON=C1SC(=S)SC1(C)C [LXXI]		B	A	B	A	B
CN=C1SC(=NOC(=O)N(C)SN(C)C(=O)ON=C2SC(=NC)SC2(C)C)C(C)(C)S1 [LXXVIII]		A	A	A	A	A
CN(SN(C)C(=O)ON=C1SC(=C(C#N)C#N)SC1(C)C)C(=O)ON=C1SC(=C(C#N)C#N)SC1(C)C [LXXVII]		C	C	C	A	C
CNC(=O)ON=C1CSC(=CC(C)=O)S1 [LXXVI]		C	C	C	B	A
CC(C)C(=O)C(C)(C)SSN(C)C(=O)ON=C1SC(=C(C#N)C#N)SC1(C)C [LXXV]		B	A	A	B	C
CN(SC(Cl)(Cl)Cl)C(=O)ON=C1SC(=NC#N)SC1(C)C [LXX]		C	C	C	C	C
Cc1ccc(S(=O)(=O)N=C2SC(=NOC(=O)N(C)SC(Cl)(Cl)Cl)C(C)(C)S2)cc1 [LX]		B	C	C	B	B
CN=C1SC(=NOC(=O)NC)C(C)(C)S1 [XL, 5,5-Dimethyl-2-methylimino-4-[O-(N-methylcarbamoyl)oximino]-1,3-dithiolane]		B	A	A	A	A
CCN=C1SC(=NOC(=O)N(C)SC(Cl)(Cl)Cl)C(C)(C)S1 [XLI, 5,5-Dimethyl-2-ethylimino-4-[[O-[N-methyl-N-(trichloromethanesulfenyl)carbamoyl]oximino]]-1,3-dithiolane]		B	A	A	A	A
CN(C)C(=O)ON=C1SC(=C(C#N)C#N)SC1(C)C [XLIII, 5,5-Dimethyl-2-(dicyanomethylidene)-4-[O-(N,N-dimethylcarbamoyl)oximino]-1,3-dithiolane]		C	B	C	B	B
CN(C)N=C1SC(=NOC(=O)N(C)SSC(C)(C)C)C(C)(C)S1 [XLII]		A	A	A	A	A
CC(C)N=C1SC(=NOC(=O)N(C)SSC(C)(C)C)C(C)(C)S1 [XLIX]		C	A	A	A	A
CN=C1SC(=NOC(=O)N(C)SC(Cl)(Cl)Cl)C(C)(C)S1 [XLV]		A	A	A	A	A
